Source: PMC10021052, “Novel multivalent S100A8 inhibitory peptides attenuate tumor progression and metastasis by inhibiting the TLR4-dependent pathway” (Cancer Gene Therapy, 2023)
Entries after “also recorded” stand apart in the source; their conditions may differ.

Experiments:
SW480 cells = assay: qPCR, S100A8-mediated IL-8 and VEGF mRNA induction in SW480 cells; format: cell-based, human; conditions: qPCR, normalized to β-actin
[1] = test system: p38 and p65 (NF-κB) in SW480 cells; assay: Western blotting, S100A8-induced phosphorylation of p38 and p65 in SW480 cells; format: cell-based; conditions: 2.5 µM pretreatment, human S100A8 30 min
Experimental: Cells were lysed in lysis buffer (50 mM Tris-HCl [pH 7.4], 150 mM NaCl, 5 mM Na4P2O7, 10 mM β-glycerophosphate, 25 mM NaF, 1 mM EDTA, 1 mM EGTA, 1 mM Na3VO4, and 1% [v/v] Triton X-100) containing the cOmplete^TM Mini protease inhibitor cocktail (Roche Diagnostics, Indianapolis, IN, USA) as described previously. Cell lysates (20 µg) were separated using SDS-PAGE and transferred to an Immun-Blot PVDF membrane (Bio-Rad, Hercules, CA, USA). After blocking with Blocking One or Blocking One-P (Nacalai tesque, Kyoto, Japan), membranes were probed with the indicated antibodies, followed by HRP-labeled anti-rabbit IgG and anti-mouse IgG (GE Healthcare). Signals were visualized using Immobilon Western HRP Substrate (Millipore, Billerica, USA).
Fig. 4 Improvement of competitive inhibition activity by divalent peptide3A5. A The binding capacity was measured at the indicated concentration using an ELISA-based assay. Similar results were obtained in three independent experiments. B SW480 cells were pretreated with 2.5 µM of divalent peptide3A5, and then stimulated with human S100A8 recombinant protein. After 30 min, cell lysates were subjected to western blotting using the indicated antibody. The divalent peptide#3 or peptide3A5 reduced the expression of S100A8-mediated IL-8 (C) and VEGF (D) induction. […]

MDSCs = MDSCs in LLC tumor-bearing mice; format: in vivo, C57BL/6J mice; conditions: peripheral blood of LLC-tumor-bearing mice; *P < 0.05 vs control
CD8+ cells = assay: Intratumoral infiltrating CD8+ cells; format: in vivo, mouse; conditions: Supplementary Fig. 3A
Experimental: To immunostain tumor vasculatures, the cryo sections (6 µm) obtained from frozen primary tumors, were incubated with anti-CD31 (BD Pharmingen, Cat No. 550274), and/or anti-α-SMA-Cy3 (Sigma-Aldrich, Cat No. C6198) followed by AlexaFlour 488-conjugated rat IgG secondary antibodies (Thermo Fisher Scientific) were used to visualize the signals by a confocal microscopy (LSM-710; Carl Zeiss). DAPI staining was used for nuclear staining. For immunohistochemistry, the paraffin-embedded sections were cut 4 µm thick and then deparaffinized, rehydrated and then treated for antigen retrieval. The sections were incubated with the indicated antibody overnight, followed by incubation with ImmPRESS HRP Reagent (Vector, Newark, CA). ImmPACT DAB (Vector) was used for visualization of the signals. The images were captured by BZ-X800 (Keyence, Osaka, Japan).

[2] = test system: MC38 colorectal cancer cells; assay: Tumor suppression in MC38 model; format: in vivo, mouse; conditions: with anti-PD-1 antibody, Supplementary Fig. 3B
From the text: Because S100A8 inhibitory peptides target S100A8-TLR4/MD-2, which plays a role in innate immunity, the complete functional activities of S100A8 inhibitory peptides are expected to be observed in immunocompetent models. To date, syngeneic models are one of the only options to test physiological interactions between tumors and immune cells. […] LLC cells were identified as non-responders to anti-PD-1/programmed death-ligand 1 (PD-L1) therapy. […] We then examined the effect of divalent peptide3A5 in mouse MC38 colorectal cancer cells used as anti-PD-1 responder cells. We previously confirmed that MC38 endogenously expressed TLR4/MD-2 [8].

[3] = test system: tumor cells and macrophages; assay: Cytokine/chemokine induction in tumor cells and macrophages; format: cell-based; conditions: possible mechanism scheme, Fig. 7I

In the case of “FQEFAILVIK [Divalent peptide3A5, divalent peptide of peptide3A5 using Fmoc-Lys (Fmoc)-OH to form two branches]”, the “S100A8-mediated VEGF induction (mRNA)” value (SW480 cells) was “efficiently inhibited”, the “S100A8-mediated IL-8 induction (mRNA)” value (SW480 cells; *P < 0.05 vs S100A8) was “efficiently inhibited” and the “inhibition of S100A8-induced phosphorylation of p38” value [1] was 1.3 fold. For the same sequence, the “inhibition of S100A8-induced phosphorylation of p65 (NF-κB)” value [1] was 1.7 fold, the MDSC cell number (MDSCs) was “reduced the cell population of MDSCs; also recorded: reduces cell number of MDSCs in peripheral blood” and the “intratumoral infiltrating CD8+ cells, alone” value (CD8+ cells; LLC tumor-bearing mice) was “increased”. The “intratumoral infiltrating CD8+ cells, combination with anti-PD-1” value (CD8+ cells; combination with anti-PD-1 antibody) was “increased”, the “MC38 tumor suppression, combination with anti-PD-1” value [2] was “significantly improved the efficacy of anti-PD-1 therapy; also recorded: increased the efficacy of anti-PD-1 therapy” and the induction of cytokines/chemokines [3] was “suppress the induction of cytokines/chemokines in both tumor cells and macrophages”.
